Measurements as given in ChEMBL document CHEMBL1781967, “1-[4-(N-Benzylamino)phenyl]-3-phenylurea derivatives as a new class of hypoxia-inducible factor-1alpha inhibitors” (Bioorg Med Chem Lett, 2009).
Calls of active or inactive are those of the source. The calls are words filed in the database; no cut-off is given here.

Columns and labels:
[1] = target: T1, Hypoxia-inducible factor 1-alpha (Homo sapiens, UniProt Q16665); test: Inhibition of hypoxia-induced HIF1alpha transcriptional activity in HEK293 cells incubated for 16 hrs by hypoxia response element-driven luciferase reporter gene assay; assay type: cell-based
Target sequence in this assay (Q16665 whole entry): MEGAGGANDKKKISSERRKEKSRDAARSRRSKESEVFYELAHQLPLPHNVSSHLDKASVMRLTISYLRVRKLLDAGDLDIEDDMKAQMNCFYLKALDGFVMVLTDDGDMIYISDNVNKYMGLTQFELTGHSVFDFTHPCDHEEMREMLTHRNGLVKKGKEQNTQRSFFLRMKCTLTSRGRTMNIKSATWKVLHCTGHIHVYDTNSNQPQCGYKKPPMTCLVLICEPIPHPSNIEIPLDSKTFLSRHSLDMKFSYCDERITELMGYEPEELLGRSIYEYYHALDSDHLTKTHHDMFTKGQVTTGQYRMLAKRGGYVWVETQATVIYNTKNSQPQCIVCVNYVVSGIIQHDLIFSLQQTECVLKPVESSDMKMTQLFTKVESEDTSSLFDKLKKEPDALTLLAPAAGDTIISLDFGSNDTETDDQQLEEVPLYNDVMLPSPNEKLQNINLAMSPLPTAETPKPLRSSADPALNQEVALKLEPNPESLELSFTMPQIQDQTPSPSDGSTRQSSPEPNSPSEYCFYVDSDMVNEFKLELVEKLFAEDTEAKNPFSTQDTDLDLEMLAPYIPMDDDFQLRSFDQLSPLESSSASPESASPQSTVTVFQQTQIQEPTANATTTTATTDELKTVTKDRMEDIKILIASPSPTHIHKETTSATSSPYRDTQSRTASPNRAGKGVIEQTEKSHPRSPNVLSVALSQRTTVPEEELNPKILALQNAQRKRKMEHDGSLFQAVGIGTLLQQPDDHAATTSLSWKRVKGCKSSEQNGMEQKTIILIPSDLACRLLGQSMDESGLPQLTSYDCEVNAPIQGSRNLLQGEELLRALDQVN

HeLa [2] = test: Inhibition of hypoxia-induced VEGF secretion in human HeLa cells incubated for 12 hrs under hypoxic conditions by ELISA; assay type: functional, cell-based
HeLa [3] = test: Effect on HIF1alpha mRNA expression in human HeLa cells incubated for 2 hrs under hypoxic conditions by RT-PCR; assay type: functional, cell-based
HeLa [4] = test: Effect on HIF1beta protein level in human HeLa cells incubated for 4 hrs under hypoxic conditions by Western blot
[5] = target: T1, Hypoxia-inducible factor 1-alpha; test: Inhibition of HIF1alpha accumulation in human HeLa cells incubated for 4 hrs under hypoxic conditions by Western blot; assay type: cell-based
Target sequence in this assay (Q16665 whole entry, looked up): as the sequence (Q16665 whole entry) above

| IC50 [1] | Structure (SMILES) | further results |
| --- | --- | --- |
| 41.6 µM | O=C(Nc1ccccc1)Nc1ccc(NCc2cccc(C(=O)O)c2)cc1 |  |
| 8.62 µM | COc1cccc(CNc2ccc(NC(=O)Nc3ccccc3)cc2)c1OC |  |
| 17.4 µM | COc1ccccc1CNc1ccc(NC(=O)Nc2ccccc2)cc1 |  |
| 15.1 µM | COC(=O)c1cc(CNc2ccc(NC(=O)Nc3ccccc3)cc2)cc(C(=O)OC)c1 |  |
| > 100 µM | COC(=O)c1ccc(CNc2ccc(NC(=O)Nc3ccccc3)cc2)cc1 |  |
| 32.7 µM | O=C(Nc1ccccc1)Nc1ccc(NCc2ccccc2O)cc1 |  |

The remaining lines, values behind:

| Structure (SMILES) | IC50 [1] | further results |
| --- | --- | --- |
| COc1ccc(CNc2ccc(NC(=O)Nc3ccccc3)cc2)cc1 | 23 µM |  |
| COC(=O)c1ccccc1CNc1ccc(NC(=O)Nc2ccccc2)cc1 | 32.5 µM |  |
| COc1ccc(OC)c(CNc2ccc(NC(=O)Nc3ccccc3)cc2)c1 | 29.6 µM |  |
| COC(=O)c1ccc(OC)c(CNc2ccc(NC(=O)Nc3ccccc3)cc2)c1 | 22.1 µM |  |
| COc1cccc(OC)c1CNc1ccc(NC(=O)Nc2ccccc2)cc1 | 39.1 µM |  |
| COc1cc(CNc2ccc(NC(=O)Nc3ccccc3)cc2)cc(OC)c1 | 18.7 µM |  |
| O=C(Nc1ccccc1)Nc1ccc(NCc2cccc(O)c2)cc1 | 69.9 µM |  |
| O=C(Nc1ccccc1)Nc1ccc(NCc2ccc(O)cc2)cc1 | 35.5 µM |  |
| COC(=O)c1cccc(CNc2ccc(NC(=O)Nc3ccccc3)cc2)c1 | 7.21 µM | IC50 (HeLa [2]): 15 µM; inhibition (HeLa [2]): Dose-dependent effect; Activity (HeLa [3]): inactive; Activity (HeLa [4]): inactive; inhibition [5]: Dose-dependent effect |
| O=C(Nc1ccccc1)Nc1ccc(NCc2ccc(C(=O)O)cc2)cc1 | > 100 µM |  |
| O=C(Nc1ccccc1)Nc1ccc(NCc2ccccc2C(=O)O)cc1 | 51.7 µM |  |
| COc1cccc(CNc2ccc(NC(=O)Nc3ccccc3)cc2)c1 | 52.1 µM |  |
